In ChEMBL document CHEMBL1201862, “PubChem BioAssay data set” (2004):
The source made the active and inactive calls.

Columns and labels:
[1] = molecular target: Melanin-concentrating hormone receptor 1 (Homo sapiens, UniProt Q99705); experiment: Late-stage fluorescence-based counterscreen for antagonists of the G-protein coupled receptor 7 (GPR7): cell-based dose response assay to identify antagonists of the melanin-concentrating hormone receptor 1 (MCHR1) Set 6.; assay type: functional
[2] = molecular target: T1, Neuropeptides B/W receptor type 1 (Homo sapiens, UniProt P48145); experiment: GPR7 antagonist potency, late-stage follow-up, cell-based, fluorescence, dose response, set 6 (AID 588583); assay type: functional
T1 sequence (P48145 whole entry): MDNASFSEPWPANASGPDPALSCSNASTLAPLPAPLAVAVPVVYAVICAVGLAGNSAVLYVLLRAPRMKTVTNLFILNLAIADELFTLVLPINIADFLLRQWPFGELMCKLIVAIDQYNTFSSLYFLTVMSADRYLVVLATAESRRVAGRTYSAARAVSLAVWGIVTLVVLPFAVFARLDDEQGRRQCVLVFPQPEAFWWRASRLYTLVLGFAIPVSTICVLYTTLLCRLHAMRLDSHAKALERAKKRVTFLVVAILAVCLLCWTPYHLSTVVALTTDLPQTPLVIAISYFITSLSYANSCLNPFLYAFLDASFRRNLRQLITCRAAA

[3] = molecular target: Dual specificity protein kinase CLK1 (Homo sapiens, UniProt P49759); experiment: CLK1 kinase inhibitors, off-target check, dose response, selectivity assay for Dyrk1A inhibitor project, biochemical, cherry-picked samples (AID 588811)
Dual specificity protein kinase CLK1, sequence (P49759 whole entry): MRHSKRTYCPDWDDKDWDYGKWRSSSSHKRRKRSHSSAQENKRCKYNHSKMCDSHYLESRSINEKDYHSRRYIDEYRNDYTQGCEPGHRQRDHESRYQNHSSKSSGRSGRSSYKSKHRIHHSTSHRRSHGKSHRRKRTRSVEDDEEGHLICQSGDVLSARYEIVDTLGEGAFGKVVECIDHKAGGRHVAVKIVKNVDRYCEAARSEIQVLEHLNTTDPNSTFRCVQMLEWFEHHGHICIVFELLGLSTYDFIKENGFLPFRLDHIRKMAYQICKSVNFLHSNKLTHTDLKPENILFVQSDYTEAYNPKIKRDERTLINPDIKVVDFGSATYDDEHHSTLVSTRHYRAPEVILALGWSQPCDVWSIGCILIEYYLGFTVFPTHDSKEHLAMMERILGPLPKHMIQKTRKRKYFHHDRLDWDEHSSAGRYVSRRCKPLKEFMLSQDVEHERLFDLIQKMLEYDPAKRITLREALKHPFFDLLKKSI

[4] = molecular target: Dual specificity tyrosine-phosphorylation-regulated kinase 1A (Rattus norvegicus, UniProt Q63470); assay type: biochemical, Homo sapiens
Interleukin-8 = molecular target: T2, Interleukin-8 (Homo sapiens, UniProt P10145); experiment: Dose Response confirmation of uHTS small molecule hits for cystic fibrosis induced NFkb Inhibitors in a PAF-induced IL8 counterscreen.; assay type: functional; details: read-out: IC50_Mean
T2 sequence (P10145 whole entry): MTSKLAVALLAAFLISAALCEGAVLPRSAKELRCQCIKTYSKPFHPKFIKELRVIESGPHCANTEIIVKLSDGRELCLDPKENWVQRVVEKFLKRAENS

Vero = experiment: host cell cytotoxicity of antiviral hits, dose response, cytotoxicity control for West Nile virus antiviral project, secondary assay (AID 1650); assay type: functional; details: Chlorocebus sabaeus
[5] = inhibitors of intracellular T. cruzi replication, confirmation, NIH3T3 host cells, beta-gal luminescence (AID 2044); assay type: functional, cell-based;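 note: intracellular parasites grown in NIH/3T3 mouse fibroblasts as host cells; luminescent beta-galactosidase reporter signal from transgenic T. cruzi replicating inside host cells; inhibitors lower the luminescence signal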
[6] = cytotoxicity toward NIH3T3 fibroblasts, dose response, counter-screen, cell-based, ATP luminescence, mouse fibroblasts (AID 2010); assay type: functional;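 note: cells exposed to compound for about 90 hours before reading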
Insulin-degrading enzyme [7] = molecular target: T3, Insulin-degrading enzyme (Homo sapiens, UniProt P14735); experiment: activators of recombinant IDE enzyme, dose response, counter-screen for IDE activator project, biochemical, fluorescence polarization (AID 588681)
T3 sequence (P14735 whole entry): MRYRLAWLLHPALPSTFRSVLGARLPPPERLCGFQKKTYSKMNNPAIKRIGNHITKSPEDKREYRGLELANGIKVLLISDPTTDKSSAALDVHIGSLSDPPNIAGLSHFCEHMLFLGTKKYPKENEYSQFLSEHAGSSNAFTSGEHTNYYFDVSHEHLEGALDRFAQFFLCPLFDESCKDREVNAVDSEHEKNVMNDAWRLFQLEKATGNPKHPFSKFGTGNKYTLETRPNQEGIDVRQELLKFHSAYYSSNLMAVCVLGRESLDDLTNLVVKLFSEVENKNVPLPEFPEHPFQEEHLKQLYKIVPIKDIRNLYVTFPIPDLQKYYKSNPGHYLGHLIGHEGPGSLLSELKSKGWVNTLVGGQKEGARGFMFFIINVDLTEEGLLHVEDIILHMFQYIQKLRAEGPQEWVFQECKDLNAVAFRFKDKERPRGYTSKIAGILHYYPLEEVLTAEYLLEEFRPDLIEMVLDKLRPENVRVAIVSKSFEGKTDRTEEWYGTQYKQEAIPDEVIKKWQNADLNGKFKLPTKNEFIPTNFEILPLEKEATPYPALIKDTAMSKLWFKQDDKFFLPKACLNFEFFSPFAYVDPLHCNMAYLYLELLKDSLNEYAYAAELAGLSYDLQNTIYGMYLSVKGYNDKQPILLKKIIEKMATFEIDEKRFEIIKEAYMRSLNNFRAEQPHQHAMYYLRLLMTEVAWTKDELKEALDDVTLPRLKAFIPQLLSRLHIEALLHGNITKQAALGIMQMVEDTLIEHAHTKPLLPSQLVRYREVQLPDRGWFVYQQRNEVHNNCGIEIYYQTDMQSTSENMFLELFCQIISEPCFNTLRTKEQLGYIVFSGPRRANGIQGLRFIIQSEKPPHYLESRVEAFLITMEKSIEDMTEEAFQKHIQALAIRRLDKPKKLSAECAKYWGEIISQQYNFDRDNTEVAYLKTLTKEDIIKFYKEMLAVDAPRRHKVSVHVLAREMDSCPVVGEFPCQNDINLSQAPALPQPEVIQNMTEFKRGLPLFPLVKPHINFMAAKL

Insulin-degrading enzyme [8] = molecular target: T3, Insulin-degrading enzyme; experiment: activators of endogenous IDE in HEK cells, dose response, cell-based, fluorescence polarization (AID 588439); assay type: functional
HEK293 [9] = experiment: HEK cell cytotoxicity by LDH release, dose response, cytotoxicity control for IDE activator project, fluorescence, HEK cells (AID 588440); assay type: functional, cell-based; details: Homo sapiens;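 note: cytotoxicity by LDH release measuring loss of membrane integrity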
HEK293 [10] = experiment: optical interference in Abeta FP readout, dose response, artefact control for IDE activator project, biochemical, fluorescence polarization (AID 588442); assay type: functional, cell-based; details: Homo sapiens

Melanin-concentrating hormone receptor 1, sequence (Q99705 whole entry): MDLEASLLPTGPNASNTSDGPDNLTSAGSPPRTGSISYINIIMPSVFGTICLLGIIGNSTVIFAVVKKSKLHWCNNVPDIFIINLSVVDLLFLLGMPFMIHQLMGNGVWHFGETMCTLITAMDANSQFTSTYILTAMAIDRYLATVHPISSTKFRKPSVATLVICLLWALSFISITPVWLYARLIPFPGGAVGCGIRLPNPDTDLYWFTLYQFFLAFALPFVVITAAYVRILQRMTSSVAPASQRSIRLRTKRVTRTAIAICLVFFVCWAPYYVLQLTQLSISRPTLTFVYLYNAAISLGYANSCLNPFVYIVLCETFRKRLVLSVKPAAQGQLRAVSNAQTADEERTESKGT

## Cc1cc(C(C#N)c2c(Cl)cnn(Cc3cccc4ccccc34)c2=O)on1 (centres undefined)
[1]
  IC50: 0.136 µM (active)
[2]
  IC50: 0.136 µM (active)

## CC1Cc2ccccc2N1c1ncnc2nc[nH]c12 (centres undefined)
[3]
  AC50: 0.19 µM (active)
[4]
  AC50: 0.811 µM (active)
Interleukin-8
  IC50: 10.5 µM (inactive)

## CCN1CCN(c2cc(C)c3cc(NC(=S)N4CCN(c5ccccc5)CC4)ccc3n2)CC1
Vero
  CC50: 19.5 µM (active)
[5]
  EC50: 1.79 µM (active)
[6]
  EC50: > 60 µM (not active)
Insulin-degrading enzyme [7]
  EC50: > 54.7 µM (inactive)
Insulin-degrading enzyme [8]
  EC50: > 54.7 µM (inactive)
HEK293 [9]
  IC50: > 89.2 µM (inactive)
HEK293 [10]
  EC50: > 54.7 µM (inactive)

## O=c1c(-c2ccccc2)c(Br)cnn1Cc1cccc2ccccc12
[1]
  IC50: 12 µM (inactive)
[2]
  IC50: 12 µM (inactive)
